Source: a melting point compilation (Tetko et al.; mined from patent text by program, amines drawn as free bases though some values may be those of a salt)

Structure (SMILES)	melting point [°C]
CC(C)CC1N=C(c2ccccc2)OC1=O (stereo not drawn)	53 to 55
CCOP(=S)(OCC)Oc1c(C(=O)c2ccccc2Cl)c(C)nn1C	71 to 74
COc1ccc2c(Nc3cccc(CCO)c3)c3ccccc3nc2c1	186 to 188
COC(CN(C(=O)C(C)C)C(C(=O)O)c1ccccc1)OC (stereo not drawn)	147 to 149
CC(C)(C)C(O)(COc1ccc(F)cc1)C(F)n1cncn1 (stereo not drawn)	89 to 90
CCCCNc1nc2cccc(C(=O)OC)c2n1Cc1ccccc1-c1ccccc1-c1nnn[nH]1	216 to 218
O=S1(=O)NCN(C2CC2)c2ccc(F)c(Cl)c21	198 to 200
CCc1nnc2c3c(c(Cl)nn12)CCCC3	93 to 94
CNc1nc(Nc2ccc(Cl)c(Cl)c2)ncc1NS(=O)(=O)Cc1ccccc1	233 to 235
O=C(c1cncnc1)c1ccc(Cl)cc1Cl	75 to 78
Cc1nc2c(O)c(CCC(=O)c3cccs3)c(C(=O)N(C)C)cc2n1C	233 to 235
CS(=O)(=O)c1ccc(-c2ccc(C(F)(F)F)n2-c2ccc(F)cc2)cc1	136 to 139
O=C(c1ccccc1)C1CCN(CC2CN(c3ccccc3)C(=O)O2)CC1 (stereo not drawn)	104 to 105
CCOCCOc1cc(C(C)C)c(NC(=O)CN2CCN(CCCSc3nc4ccccc4o3)CC2)c(C(C)C)c1	115 to 117
CC(C)C(=O)NCCCC1COCc2nc3c(N)nc4ccccc4c3n21 (stereo not drawn)	207 to 208
Cc1nc(-c2nc(C)c(-c3ccnc(Nc4cc(Cl)c(N5CCOCC5)c(Cl)c4)n3)s2)cs1	> 300
O[C@@H]1[C@H](O)CS[C@H]1n1cnc2c(NCc3ccccc3Cl)nc(Cl)nc21	199 to 200
CSc1cc(C)nc(SC)c1NC(=O)CCCCCSc1nc2ncccc2o1	132 to 133
CN(C)S(=O)(=O)n1c(C(=S)NCO)nc2cc(Cl)c(Cl)cc21	140 to 142

Second part, the compound after the results:

melting point [°C]	Structure (SMILES)
> 350	COc1ccc(-c2c(O)c3ccc(Cl)cc3[nH]c2=O)cc1
200 to 201	O=C(Oc1ccccc1)N1CCC2(CC1)SC(c1ccc(F)cc1)c1ccccc12 (stereo not drawn)
184 to 185	Cc1cc2c(s1)S(=O)(=O)N(C)C(=O)C2C(=O)Nc1ccccc1 (stereo not drawn)
206 to 207	O=C1c2ccccc2C2(O)Oc3ccc([N+](=O)[O-])cc3C12O (stereo not drawn)
149 to 153	COc1ccc2c(c1)OC(C(=O)O)Oc1ccccc1C2 (stereo not drawn)
251 to 253	COc1cccc2cc(C(=O)O)oc(=O)c12
> 250	CS(=O)(=O)Nc1cc2oc(C(N)=O)cc(=O)c2cc1Oc1ccccc1
282 to 286	O=c1[nH]c2ccc(Cl)cc2c(-c2ccccc2F)c1CO
138 to 141	CN(CCc1ccc([N+](=O)[O-])cc1)C1Cc2ccc([N+](=O)[O-])cc2C1 (stereo not drawn)
